The numbers were not newly measured in PubChem BioAssay AID1259409 (Chemical Carcinogenesis Research Information System (CCRIS), 2018), which cites them from elsewhere.

The subject of the data set is rodent chemically induced tumor inhibition, incidence and multiplicity. Put plainly: CCRIS tumor inhibitor studies. As to conditions: Carcinogen: N-METHYL-N-NITROSOUREA, 684-93-5, Dose [Inhibitor]: 0, Route [Inhibitor]: GAVAGE, Species: RAT, Strain/Sex: SPRAGUE-DAWLEY/FEMALE, Target Tissue: Type of Lesion: MAMMARY GLAND: CARCINOMA, Dose [Carcinogen]: 50 MG/KG BW ONCE, Promoter: NONE USED.

In the case of `CCN(CC)CCCCOc1ccc(/C(=C(/Cl)c2ccccc2)c2ccccc2)cc1`, the “tumour outcome (control, treated, inhibition, significance)” value is, setting by setting: (0.003 MG/KG BW 1/D FOR 90 D BEGINNING 1 WK POST CARCINOGEN DOSE (STUDY DURATION: 90 D)) 100%, 50%, 50%, not calculated; (0.01 MG/KG BW 1/D FOR 90 D BEGINNING 1 WK POST CARCINOGEN DOSE (STUDY DURATION: 90 D)) 100%, 30%, 70%, not calculated; (0.1 MG/KG BW 1/D FOR 85 D BEGINNING 1 WK POST CARCINOGEN DOSE (STUDY DURATION: 85 D)) 100%, 5%, 95%, not calculated; (1 MG/KG BW 1/D FOR 85 D BEGINNING 1 WK POST CARCINOGEN DOSE (STUDY DURATION: 85 D)) 100%, 5%, 95%, not calculated.
